{"source": "patent US11911393B2", "about": "“Non-catalytic substrate-selective p38alpha-specific MAPK inhibitors with endothelial-stabilizing and anti-inflammatory activity, and methods of use thereof” (University of Maryland, Baltimore, priority 2016, dated 2024)", "test_system": "TNFα-induced gene expression in HMVECLs", "test": "RNASeq of TNFα-induced gene expression", "assay_type": "cell-based, human", "conditions": "100 μM UM101, 10 μM SB203580"}
{"compound": "C[S+]([O-])c1ccc(-c2nc(-c3ccncc3)c(-c3ccc(F)cc3)[nH]2)cc1", "note": "(stereo not shown) [SB203580, reference compound]", "values": [{"measurement": "bin (gene expression response pattern)", "setting": "AC003092.1 (ENSG00000236453)", "result": 7}, {"measurement": "bin (gene expression response pattern)", "setting": "AC010642.2 (ENSG00000269794)", "result": 7}, {"measurement": "bin (gene expression response pattern)", "setting": "AC116366.6 (ENSG00000234290)", "result": 8}, {"measurement": "bin (gene expression response pattern)", "setting": "ADAP1 (ENSG00000105963)", "result": 7}, {"measurement": "bin (gene expression response pattern)", "setting": "ADM2 (ENSG00000128165)", "result": 7}, {"measurement": "bin (gene expression response pattern)", "setting": "ANKRD55 (ENSG00000164512)", "result": 8}, {"measurement": "bin (gene expression response pattern)", "setting": "APOBEC3G (ENSG00000239713)", "result": 7}, {"measurement": "bin (gene expression response pattern)", "setting": "APOL2 (ENSG00000128335)", "result": 7}, {"measurement": "bin (gene expression response pattern)", "setting": "APOL6 (ENSG00000221963)", "result": 7}, {"measurement": "bin (gene expression response pattern)", "setting": "BPGM (ENSG00000172331)", "result": 8}, {"measurement": "bin (gene expression response pattern)", "setting": "C1QTNF1 (ENSG00000173918)", "result": 7}, {"measurement": "bin (gene expression response pattern)", "setting": "C6orf58 (ENSG00000184530)", "result": 7}, {"measurement": "bin (gene expression response pattern)", "setting": "C8orf4 (ENSG00000176907)", "result": 8}, {"measurement": "bin (gene expression response pattern)", "setting": "C11orf88 (ENSG00000183644)", "result": 7}, {"measurement": "bin (gene expression response pattern)", "setting": "C15orf54 (ENSG00000175746)", "result": 8}, {"measurement": "bin (gene expression response pattern)", "setting": "CCL1 (ENSG00000108702)", "result": 7}, {"measurement": "bin (gene expression response pattern)", "setting": "CD40 (ENSG00000101017)", "result": 7}, {"measurement": "bin (gene expression response pattern)", "setting": "CD69 (ENSG00000110848)", "result": 8}, {"measurement": "bin (gene expression response pattern)", "setting": "CDON (ENSG00000064309)", "result": 7}, {"measurement": "bin (gene expression response pattern)", "setting": "CLEC2D (ENSG00000069493)", "result": 7}, {"measurement": "bin (gene expression response pattern)", "setting": "CSF2 (ENSG00000164400)", "result": 8}, {"measurement": "bin (gene expression response pattern)", "setting": "CTC-231O11.1 (ENSG00000253522)", "result": 7}, {"measurement": "bin (gene expression response pattern)", "setting": "CTD-2369P2.8 (ENSG00000267607)", "result": 7}, {"measurement": "bin (gene expression response pattern)", "setting": "CX3CL1 (ENSG00000006210)", "result": 7}, {"measurement": "bin (gene expression response pattern)", "setting": "DRD4 (ENSG00000069696)", "result": 7}, {"measurement": "bin (gene expression response pattern)", "setting": "EBI3 (ENSG00000105246)", "result": 8}, {"measurement": "bin (gene expression response pattern)", "setting": "EGLN3 (ENSG00000129521)", "result": 7}, {"measurement": "bin (gene expression response pattern)", "setting": "ENKUR (ENSG00000151023)", "result": 7}, {"measurement": "bin (gene expression response pattern)", "setting": "ERVFRD-1 (ENSG00000244476)", "result": 8}, {"measurement": "bin (gene expression response pattern)", "setting": "ETV3L (ENSG00000253831)", "result": 7}, {"measurement": "bin (gene expression response pattern)", "setting": "F2RL3 (ENSG00000127533)", "result": 8}, {"measurement": "bin (gene expression response pattern)", "setting": "FAM101A (ENSG00000178882)", "result": 8}, {"measurement": "bin (gene expression response pattern)", "setting": "GCH1 (ENSG00000131979)", "result": 7}, {"measurement": "bin (gene expression response pattern)", "setting": "GPR37L1 (ENSG00000170075)", "result": 7}, {"measurement": "bin (gene expression response pattern)", "setting": "GPR182 (ENSG00000166856)", "result": 7}, {"measurement": "bin (gene expression response pattern)", "setting": "HAND1 (ENSG00000113196)", "result": 8}, {"measurement": "bin (gene expression response pattern)", "setting": "HAS2 (ENSG00000170961)", "result": 8}, {"measurement": "bin (gene expression response pattern)", "setting": "HELZ2 (ENSG00000130589)", "result": 7}, {"measurement": "bin (gene expression response pattern)", "setting": "HEPACAM (ENSG00000165478)", "result": 8}, {"measurement": "bin (gene expression response pattern): AC073850.6", "setting": "HMVECLs, TNFα", "result": 5}, {"measurement": "bin (gene expression response pattern): AGPAT9", "setting": "HMVECLs, TNFα", "result": 5}, {"measurement": "bin (gene expression response pattern): ARHGAP18", "setting": "HMVECLs, TNFα", "result": 5}, {"measurement": "bin (gene expression response pattern): ARHGEF28", "setting": "HMVECLs, TNFα", "result": 5}, {"measurement": "bin (gene expression response pattern): ARL11", "setting": "HMVECLs, TNFα", "result": 5}, {"measurement": "bin (gene expression response pattern): BAMBI", "setting": "HMVECLs, TNFα", "result": 1}, {"measurement": "bin (gene expression response pattern): BCL2L10", "setting": "HMVECLs, TNFα", "result": 5}, {"measurement": "bin (gene expression response pattern): BMF", "setting": "HMVECLs, TNFα", "result": 5}, {"measurement": "bin (gene expression response pattern): C2CD4B", "setting": "HMVECLs, TNFα", "result": 5}, {"measurement": "bin (gene expression response pattern): C19orf35", "setting": "HMVECLs, TNFα", "result": 5}, {"measurement": "bin (gene expression response pattern): CCL17", "setting": "HMVECLs, TNFα", "result": 3}, {"measurement": "bin (gene expression response pattern): CD200", "setting": "HMVECLs, TNFα", "result": 3}, {"measurement": "bin (gene expression response pattern): CD207", "setting": "HMVECLs, TNFα", "result": 3}, {"measurement": "bin (gene expression response pattern): CELF2-AS1", "setting": "HMVECLs, TNFα", "result": 5}, {"measurement": "bin (gene expression response pattern): CH25H", "setting": "HMVECLs, TNFα", "result": 5}, {"measurement": "bin (gene expression response pattern): CTA-212A2.1", "setting": "HMVECLs, TNFα", "result": 3}, {"measurement": "bin (gene expression response pattern): CTA-221G9.12", "setting": "HMVECLs, TNFα", "result": 5}, {"measurement": "bin (gene expression response pattern): CTB-152G17.6", "setting": "HMVECLs, TNFα", "result": 5}, {"measurement": "bin (gene expression response pattern): CXCL3", "setting": "HMVECLs, TNFα", "result": 5}, {"measurement": "bin (gene expression response pattern): CXCL5", "setting": "HMVECLs, TNFα", "result": 3}, {"measurement": "bin (gene expression response pattern): CXCL10", "setting": "HMVECLs, TNFα", "result": 3}, {"measurement": "bin (gene expression response pattern): CXCL11", "setting": "HMVECLs, TNFα", "result": 3}, {"measurement": "bin (gene expression response pattern): DLL4", "setting": "HMVECLs, TNFα", "result": 1}, {"measurement": "bin (gene expression response pattern): ELOVL7", "setting": "HMVECLs, TNFα", "result": 3}, {"measurement": "bin (gene expression response pattern): EPHX4", "setting": "HMVECLs, TNFα", "result": 5}, {"measurement": "bin (gene expression response pattern): ETV1", "setting": "HMVECLs, TNFα", "result": 1}, {"measurement": "bin (gene expression response pattern): EXOC3L4", "setting": "HMVECLs, TNFα", "result": 3}, {"measurement": "bin (gene expression response pattern): FAM84A", "setting": "HMVECLs, TNFα", "result": 5}, {"measurement": "bin (gene expression response pattern): FBX032", "setting": "HMVECLs, TNFα", "result": 5}, {"measurement": "bin (gene expression response pattern): FHL2", "setting": "HMVECLs, TNFα", "result": 5}, {"measurement": "bin (gene expression response pattern): FLRT3", "setting": "HMVECLs, TNFα", "result": 1}, {"measurement": "bin (gene expression response pattern): FP236383.10", "setting": "HMVECLs, TNFα", "result": 4}, {"measurement": "bin (gene expression response pattern): GBP1P1", "setting": "HMVECLs, TNFα", "result": 3}, {"measurement": "bin (gene expression response pattern): GBP4", "setting": "HMVECLs, TNFα", "result": 3}, {"measurement": "bin (gene expression response pattern): GFOD1", "setting": "HMVECLs, TNFα", "result": 5}, {"measurement": "bin (gene expression response pattern): GPR68", "setting": "HMVECLs, TNFα", "result": 2}, {"measurement": "bin (gene expression response pattern): GPR88", "setting": "HMVECLs, TNFα", "result": 3}, {"measurement": "bin (gene expression response pattern): GRPEL2", "setting": "HMVECLs, TNFα", "result": 5}, {"measurement": "bin (gene expression response pattern): HAS3", "setting": "HMVECLs, TNFα", "result": 3}, {"measurement": "bin (gene expression response pattern): HEY1", "setting": "HMVECLs, TNFα", "result": 5}, {"measurement": "bin (gene expression response pattern): HMSD", "setting": "HMVECLs, TNFα", "result": 5}, {"measurement": "bin (gene expression response pattern): HRCT1", "setting": "HMVECLs, TNFα", "result": 5}, {"measurement": "bin (gene expression response pattern): HTR1D", "setting": "HMVECLs, TNFα", "result": 5}, {"measurement": "bin (gene expression response pattern): IBA57-AS1", "setting": "HMVECLs, TNFα", "result": 5}, {"measurement": "bin (gene expression response pattern): ID1", "setting": "HMVECLs, TNFα", "result": 5}, {"measurement": "bin (gene expression response pattern): IDO1", "setting": "HMVECLs, TNFα", "result": 3}, {"measurement": "bin (gene expression response pattern): IL1B", "setting": "HMVECLs, TNFα", "result": 3}, {"measurement": "bin (gene expression response pattern): INPP4B", "setting": "HMVECLs, TNFα", "result": 5}, {"measurement": "bin (gene expression response pattern): JUNB", "setting": "HMVECLs, TNFα", "result": 5}, {"measurement": "bin (gene expression response pattern): KCNJ12", "setting": "HMVECLs, TNFα", "result": 1}, {"measurement": "bin (gene expression response pattern): KDM7A", "setting": "HMVECLs, TNFα", "result": 5}, {"measurement": "bin (gene expression response pattern): KIAA1211L", "setting": "HMVECLs, TNFα", "result": 1}, {"measurement": "bin (gene expression response pattern): KIT", "setting": "HMVECLs, TNFα", "result": 5}, {"measurement": "bin (gene expression response pattern): KLF15", "setting": "HMVECLs, TNFα", "result": 5}, {"measurement": "bin (gene expression response pattern): KSR2", "setting": "HMVECLs, TNFα", "result": 5}, {"measurement": "bin (gene expression response pattern): LINC00677", "setting": "HMVECLs, TNFα", "result": 3}, {"measurement": "bin (gene expression response pattern): LMCD1", "setting": "HMVECLs, TNFα", "result": 5}, {"measurement": "bin (gene expression response pattern): LONRF3", "setting": "HMVECLs, TNFα", "result": 5}, {"measurement": "bin (gene expression response pattern): LRFN1", "setting": "HMVECLs, TNFα", "result": 5}, {"measurement": "bin (gene expression response pattern): LRFN5", "setting": "HMVECLs, TNFα", "result": 2}, {"measurement": "bin (gene expression response pattern): LYL1", "setting": "HMVECLs, TNFα", "result": 5}]}
